This is an account of results in US20220202895A1, “PULSATIVE GNRH ADMINISTRATION FOR TREATING COGNITIVE DISORDERS” (INSERM (Institut National de la Santé et de la Recherche …, priority 2019, published 2022).

Data set [1] concerns GnRH-R expressing neurons of Gnrhr::Cre mice injected with hM4D(Gi) DREADD viral vector. The settings on record: mouse, in vivo, 3 mg/kg.
For data set [2] the test system is unchanged. The settings on record: mouse, in vivo, 3 mg/kg. The source holds these as a separate data set.
Data set [3] deals with wild-type mice. The data set can be described thus: LH pulsatility by serial tail blood sampling and LH ELISA. It is filed as in vivo, mouse. The settings on record: continuous subcutaneous infusion by osmotic pump, 15 days. How it is done: LH assays: LH levels were determined by the previously described sensitive LH sandwich ELISA (Steyn et al., 2013). A 96-well high-affinity binding microplate (Corning) was coated with 50 μL of capture antibody (monoclonal antibody, anti-bovine LHβ subunit, 518B7; L. Sibley; University of California, UC Davis) at a final dilution of 1:1,000 (in 0.1M Na2CO3/NaHCO3, pH 9.6) and incubated overnight at 4° C. Wells were incubated with 200 μL blocking buffer (5% (w/v) skimmed milk powder in 1×PBS-T pH 7.4 (0.1 M PBS, 0.05% Tween 20 (Sigma #P9416)) for 2 hours at room temperature (RT). A standard curve was generated using a twofold serial dilution of mouse LH (reference preparation, AFP-5306A; National Institute of Diabetes and Digestive and Kidney Diseases National Hormone and Pituitary Program (NIDDK-NHPP)) in 1% (w/v) BSA (Sigma, A9418) in 1×PBS-T. The LH standards and blood samples were incubated with 50 μL of detection antibody (rabbit LH antiserum, AFP240580Rb; NIDDK-NHPP) at a final dilution of 1:10,000 for 1.5 hours at RT. […] The reaction was stopped by the addition of 50 μL of 3M HCl to each well, and the absorbance was measured at 450 nm.
Adult mice were habituated with daily handling. […] LH levels were then determined using the protocol described before. […]

The subject of data set [4] is wild-type mice. The note with it: mouse, in vivo.
Experimental: Novel object recognition test. Recognition memory was assessed using the novel object recognition test (Leger et al., 2013). Mice were single-housed for 5 days prior to testing. On day 1, two identical objects (A+A) were placed within the open-field arena on opposite sides of the cage, equidistant from the cage walls. Each mouse was placed within the two objects and allowed to explore them for 15 min. Day 2 consisted of two phases, a familiarization and a test phase. During the familiarization phase (trial 1) that lasted 15 min, mice explored two other identical objects (B+B). After this phase, mice were placed back in its home cage for 1 hour before starting the test phase. During the test phase, one object from trial 1 and a completely new object (B+C) were placed within the open-field area and mice were allowed to explore them for 5 min (trial 2). The object recognition score was calculated as the time spent exploring the new object (trial 2) over the total exploration time, and is used to represent recognition memory function. […]
The subject of data set [5] is wild-type mice. The note with it: mouse, in vivo. This is another data set of the same source.
Experimental: Habituation/dishabituation test. The habituation/dishabituation test was used to assess the ability to differentiate between different odours (Breton-Provencher et al., 2009). Mice were single-housed for 8 days prior to testing. This olfactory test included a presentation of acetophenone (00790, Sigma) for habituation and octantal (05608, Sigma) for dishabituation, or vice versa. Before the test, mice were allowed to explore the open-field area and an empty odour box for 30 min. After this habituation period, mice were sequentially presented with one odour for four consecutive trials for a duration of 1 min, and an inter-trial interval of 10 min was maintained to ensure the replacement of the odour. After four consecutive trials, a second odour was presented during a 1 min trial. Odours (20 μl of 1:1000 dilution) were administered on a filter paper and placed in a perforated plastic box to avoid direct contact with the odour stimulus. The measurement consisted of recording the total amount of time the mouse spent sniffing the object during different trials.

Entries after “also recorded” stand apart in the source; their conditions may differ.

As for `C[N+]1([O-])CCN(C2=Nc3cc(Cl)ccc3Nc3ccccc32)CC1` [CNO, clozapine-n-oxide], in data set [1], the cognitive performance entry is reported as “dramatically reduced; also recorded: impaired”. Further, in data set [2], the “olfactory performance (ability to discriminate between different odors)” value is given as “dramatically reduced; also recorded: impaired”.
Take “LUTRELEF®: a GnRH peptide of clinic use to restore fertility in patients with hypogonadotropic hypogonadism; GnRH acetate/diacetate (gonadorelin), Ferring Pharmaceuticals”: in the data set on wild-type mice [3], the “LH pulsatility (pulse frequency and amplitude)” value is reported as “prevented; also recorded: blunted LH pulsatility”. In the data set on wild-type mice [4], the cognitive performance result was “marked deleterious effects”. In addition, the olfactory performance entry in the data set on wild-type mice [5] is listed as “marked deleterious effects”.
